Data set [1] deals with striatum of normal Sprague-Dawley (SD) rats. Briefly: Cytotoxic tissue response to CED by T2-weighted and diffusion-weighted MRI and histology. Here is the method: The resultant solution was infused into the striatum of normal Sprague-Dawley (SD) rats (males, 250-300 grams). T1-weighted MR images were acquired immediately post treatment to assess the extent of convection. Additionally, T2-weighted and diffusion-weighted MR images were acquired 24 hours post treatment to assess the response of the tissue and its correlation to the extent of convection.
Under full anesthesia, a midline scalp incision was made to identify the bregma. A 1 mm burr hole was made in the right region of the skull, 3 mm anterior and 2 mm lateral to the bregma. A 33-gauge needle attached to a 1000 μl syringe (Gastight; Hamilton) was placed stereotactically 5.5 mm deep into the striatum. The infusion was performed using a BASI syringe pump at a rate of 1 μl/min for a duration ranging from […].
In order to obtain a wide range in volumes of distribution, the infusion times were varied between 17 to 60 minutes. 13 rats were treated with Carboplatin (4 mg/ml, 17 minutes infusion). […]
The volume (in cm^3) of the composition distribution was calculated from the T1-weighted MR images acquired immediately post CED treatment. […] The number of pixels in the ROIs was counted and multiplying by the volume of a single pixel. […]

A further data set deals with C26 colon cancer tumors. The experiment in a line: CED of high viscosity toxic infusates in C26 tumors in mice thigh, MRI. Type of data set: in vivo, balb-c mice. The method, then: Five balb-c mice, bearing large (over 2 cm in diameter) C26 colon cancer tumors in the thigh, were treated with CED of high viscosity toxic infusates. […] Two mice were treated with a high concentration combination of Ethanol and Cremaphore (150 μl Ethanol and 150 μl Cremaphore diluted with Saline to 1 ml) at infusion rate of 4 μl/min for 105 minutes.
Infusates were mixed with Gd (1:70) prior to treatment. MR images were acquired immediately post treatment to assess the distribution of the drug within the tumor.

Another data set deals with malignant gliomas. To be noted: first 24-48 hours post intratumoral CED, patients with recurrent malignant brain tumors; cited from earlier work.

SMILES strings stand for the structures.

Consider `N.N.O=C([O-])C1(C(=O)[O-])CCC1.[Pt+2]` [Carboplatin], for which the “enhancement in diffusion-weighted MR images” value in data set [1] (24 hours post treatment, cases of efficient convection) is recorded as “significant enhancement”.

Take `CC(=O)O[C@H]1C(=O)[C@@]2(C)[C@H]([C@H](OC(=O)c3ccccc3)[C@]3(O)C[C@H](OC(=O)[C@H](O)[C@@H](NC(=O)c4ccccc4)c4ccccc4)C(C)=C1C3(C)C)[C@]1(OC(C)=O)CO[C@@H]1C[C@@H]2O` [Taxol®, Paclitaxel]: the “tumor tissue response (T2 MRI 24 hours post treatment)” value in the data set on C26 colon cancer tumors (mouse of FIGS. 16, efficient CED) is “complete necrosis”; in the data set with C26 colon cancer tumors (mouse of FIGS. 17, inefficient CED), “no significant change in the tumor”. Also, in the data set with malignant gliomas, the “water diffusion changes on diffusion-weighted MRI” value is “clear changes”. Besides, the “histology of en block-resected lesion” value in data set [1] (rat, in vivo) is “Severe damage covering most of the striatum”.

(Values after patent US20110098554A1, “Monitoring of convection enhanced drug delivery” (priority 2004, published 2011).)
